{"source": "patent US9896730B2", "about": "“Use of EMT gene signatures in cancer drug discovery, diagnostics, and treatment” (OSI Pharmaceuticals, LLC, priority 2011, dated 2018)", "key": {"H358 cells [1]": {"test_system": "H358 cells", "test": "Cell proliferation (Cell Titer Glo): erlotinib sensitivity in H358 EMT models", "type": "cell-based, human", "conditions": "ligand- and snai1-induced EMT", "description": "(§1) Measurement of Cell Proliferation: Cell proliferation was determined using the Cell Titer Glo assay (Promega Corporation, Madison, Wis.). Cell lines were seeded at a density of 3000 cells per well in a 96-well plate. For assessment of drug effects on proliferation, 24 hours after plating, cells were dosed with varying concentrations of drug, either as a single agent or in combination. The signal for Cell Titer Glo was determined 72 hours after dosing.\n(§2) Ligand-driven EMT models: NCI-H358 cells were cultured in RPMI medium (Gibco #21870) with 10% fetal bovine serum (Sigma), 1 mM sodium pyruvate (Gibco #11360), 2 mM L-glutamine (Gibco #25030) and 10 mM HEPES (Gibco #15630). For ligand treatment, cells were seeded in normal growth medium and stimulated the following day (Day 0) with 100 ng/ml HGF (Peprotech #100-39), 100 ng/ml OSM (R and D systems, 295-OM), 2.5 ng/ml TGFβ1 (EMD Biosciences #616450) or combinations of the three. Medium was changed and fresh ligand was added on day 4 and day 6 after stimulation, such that samples were stimulated with fresh ligand 24 hrs prior to RNA isolation. For analysis containing drug treatments, DMSO or Drug was added to the samples at time of ligand treatments. Samples were taken for RNA Day 1, Day 4 and Day 7. […]"}, "lung tumors": {"test_system": "lung tumors", "conditions": "adenocarcinoma patients versus squamous cell carcinoma patients; cited from earlier work"}, "[2]": {"test_system": "advanced, treatment-refractory NSCLC", "conditions": "Phase III, monotherapy, patients with advanced; cited from earlier work"}, "H1650 cells": {"test_system": "H1650 cells", "test": "Cell proliferation (Cell Titer Glo): erlotinib sensitivity in H1650 EMT model", "type": "cell-based, human", "conditions": "H1650 cells in vitro, before or after EMT induction", "description": "as §1, §2"}, "H358 cells [3]": {"test_system": "H358 cells", "test": "88 gene EMTGS qPCR and EMT characterization, ligand-driven H358 EMT model", "type": "cell-based, human", "conditions": "7 day ligand stimulation", "description": "as §2, with “7. NCI-H1650 and NCI-H292 cells were grown in RPM medium (Gibco #21870) with 10% fetal bovine serum (Sigma), 1 mM sodium pyruvate (Gibco #11360), 2 mM L-glutamine (Gibco #25030) and 10 mM HEPES (Gibco #15630). CFPAC1 cells (ATCC #CRL-1918) were cultured in DMEM (Gibco #11960) supplemented with 10% FBS (Sigma), 2 mM L-glutamine (Gibco #25030). A549 cells were cultured in MEM with 10% fetal bovine serum, 2 mM L-glutamine and 1 mM sodium pyruvate. Cells were treated with ligand for 7 days and harvested as described for NCI-H358 cells in [249] unless otherwise noted.” for “7.”\n(§3) Normalization genes used with 88 gene EMTGS for RT-PCR Analysis: The genes GTF2B, GAPDH, SDHA, and ACTB were chosen as normalization genes in qPCR analysis. […] The Delta Ct is then calculated as follows: Delta Ct=(Ct value of Gene X)−(Geometric mean of all normalization genes) For calculation of fold change between a control sample and a treated sample: Control sample=2^(−Delta Ct) Treated sample=2^(−Delta Ct) Fold change=Treated sample/Control sample Values below 1 (ratios) are converted to fold change by multiplying by −(1/X)"}, "A549 cells": {"test_system": "A549 cells", "test": "88 gene EMTGS qPCR, A549 cells treated with TNF and TAK1 siRNA", "type": "cell-based, human", "conditions": "relative to untreated cells", "description": "as §2, §3"}}, "note": "Entries after “also recorded” stand apart in the source; their conditions may differ."}
{"molecule": "C#Cc1cccc(Nc2ncnc3cc(OCCOC)c(OCCOC)cc23)c1", "note": "[erlotinib, [6,7-bis(2-methoxyethoxy)-4-quinazolin-4-yl]-(3-ethynylphenyl)amine]", "values": [{"measurement": "sensitivity to erlotinib after EMT induction", "setting": "H358 cells [1]", "value": "decreased sensitivity; also recorded: decreases"}, {"measurement": "clinical response", "setting": "lung tumors", "value": "respond better"}, {"measurement": "disease progression", "setting": "[2]", "value": "delayed disease progression"}, {"measurement": "survival", "setting": "[2]", "value": "significantly prolonged survival"}, {"measurement": "worsening of lung cancer-related symptoms", "setting": "[2]", "value": "delayed worsening"}, {"measurement": "sensitivity to erlotinib", "setting": "H1650 cells", "value": "not sensitive"}]}
{"molecule": "TGFβ: transforming growth factor β, EMT-inducing ligand", "values": [{"measurement": "extent of EMT induced (morphology, biomarker, phenotypic changes)", "setting": "H358 cells [3]", "value": "more advanced EMT"}]}
{"molecule": "HGF: hepatocyte growth factor, EMT-inducing ligand", "values": [{"measurement": "extent of EMT induced (morphology, biomarker, phenotypic changes)", "setting": "H358 cells [3]", "value": "partial EMT"}]}
{"molecule": "TNFa", "values": [{"measurement": "effect on epithelial genes of 88 gene EMTGS", "setting": "A549 cells", "value": "downregulation"}, {"measurement": "effect on mesenchymal genes of 88 gene EMTGS", "setting": "A549 cells", "value": "upregulation"}]}
{"molecule": "OSM: oncostatin M, EMT-inducing ligand (protein, UniProt P13725 26-221, looked up) Oncostatin-M: AAIGSCSKEYRVLLGQLQKQTDLMQDTSRLLDPYIRIQGLDVPKLREHCRERPGAFPSEETLRGLGRRGFLQTLNATLGCVLHRLADLEQRLPKAQDLERSGLNIEDLEKLQMARPNILGLRNNIYCMAQLLDNSDTAEPTKAGRGASQPPTPTPASDAFQRKLEGCRFLHGYHRFMHSVGRVFSKWGESPNRSRR", "values": [{"measurement": "extent of EMT induced (morphology, biomarker, phenotypic changes)", "setting": "H358 cells [3]", "value": "partial EMT"}]}
